{
  "source": "paper PMC12775434",
  "about": "“Ultra-large virtual screening unveils potent agonists of the neuromodulatory orphan receptor GPR139” (Nature Communications, 2025)",
  "key": {"[1]": {"tested_on": "patients with schizophrenia and major depressive disorder", "conditions": "cited from earlier work"}, "GPR139 [2]": {"biological_target": "T1, GPR139 (Homo sapiens, UniProt Q6DWJ6)", "T1 sequence (Q6DWJ6 1-353)": "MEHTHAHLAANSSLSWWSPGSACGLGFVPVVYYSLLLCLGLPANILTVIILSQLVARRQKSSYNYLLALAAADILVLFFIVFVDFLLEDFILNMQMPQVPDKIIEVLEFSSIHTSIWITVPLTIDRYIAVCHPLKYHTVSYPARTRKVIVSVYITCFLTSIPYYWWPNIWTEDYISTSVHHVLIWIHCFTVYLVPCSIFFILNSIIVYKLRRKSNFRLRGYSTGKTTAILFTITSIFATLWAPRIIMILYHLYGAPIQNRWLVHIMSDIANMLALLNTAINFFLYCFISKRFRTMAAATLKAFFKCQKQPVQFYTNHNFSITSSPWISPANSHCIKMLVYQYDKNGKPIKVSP", "assay": "Ca2+ mobilization assay, agonist mode, stable GPR139-CHOk1 cell line", "format": "cell-based", "in_short": "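Agonist activity of compounds is assessed in stably transfected CHO-K1 cells using the calcium dye Fluo-4 at 37 °C in HEPES-buffered HBSS (pH 7.4). Efficacy is expressed relative to the reference agonist Lundbeck Cmp 1a, set as 100%.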"}, "GPR139 [3]": {"biological_target": "T1, GPR139", "assay": "Inositol monophosphate (IP1) accumulation assay, GPR139-CHOk1", "format": "cell-based", "conditions": "for IP1 response (% of Cmp 1a): replicate experiments", "method": "Primary screening and pharmacological characterization of compounds were performed using a CHO-K1 cell line that stably expresses human GPR139 (GPR139-CHOk1). The GPR139-CHOk1 cell line was kindly provided by H. Lundbeck A/S, Denmark[24]. GPR139-CHOk1 cells were grown in Ham’s F-12 Kaighn’s Modification Medium (ThermoFisher #21127030) supplemented with 10% dialyzed fetal bovine serum (US origin, ThermoFisher #26400044), 100 units/mL Penicillin-Streptomycin (ThermoFisher #15140122), and 1 mg/mL Geneticin (ThermoFisher #11811031). […] M1R-CHOk1 cells were purchased from The Missouri S&T cDNA Resource Center (#CEM100TN00). M1R-CHOk1 cells were grown in Ham’s F12 Medium (ThermoFisher #21765029) supplemented with 10% fetal bovine serum (Brazilian origin, ThermoFisher #10270106), 100 units/mL Penicillin-Streptomycin, and 0.25 mg/mL Geneticin. HEK293A cells transiently transfected with GPR139 were used for additional pharmacological assessment of signaling pathways activated by GPR139. HEK239A cells were generously provided by Dr. Asuka Inoue, Tohoku University, Japan. HEK293A cells were grown in Dulbecco’s Modified Eagle Medium (ThermoFisher #31966047) supplemented with 10% dialyzed fetal bovine serum and 100 units/mL Penicillin-Streptomycin. Cell lines were maintained at 37 °C in humidified incubator equilibrated with 5% CO2.\nHTRF IP-One Gq kit (Cisbio #62IPAPEC) was used to detect the accumulation of inositol monophosphate (IP1) as described in the work by Shehata et al.[26]. GPR139-CHOk1 cells were dissociated and resuspended in HEPES buffer. 50,000 cells in 5 µL and 5 µL test compounds diluted from DMSO stocks (final DMSO concentration of maximally 0.3%) in HEPES buffer supplemented with 40 mM LiCl were mixed in each well of white 384-well OptiPlate (PerkinElmer #6007290). The cells were incubated for 1 h at 37 °C. Then, 10 µL detection reagent composed of 2.5% Eu3 + -anti-IP1 antibody and 2.5% IP1-d2 diluted in lysis buffer was added, and the cells were incubated for 1 h at room temperature before measurements. Measurements were performed on EnVision Multimode Plate Reader (PerkinElmer) using excitation light of 340 nm and emission light of 615 nm and 665 nm. The time resolved-fluorescence resonance energy transfer (TR-FRET) 665 nm/615 nm ratio, which is inversely proportional to the IP1 accumulation, was used to determine the IP1 response.\nPharmacological data and statistical analyses were performed in GraphPad Prism v9–10 (Graphpad Software Inc., San Diego, CA), which are also specifically described in the figure and table legends. The functional assay responses were normalized to buffer (0%) and Lundbeck Cmp 1a or JNJ-63533054 (100%), for Ca^2+ and IP1 experiments in the GPR139-CHOk1 stable cell line or Ca^2+, G protein activation, and arrestin-3 recruitment experiments in the HEK293A cells transiently transfected with GPR139, respectively. Data are from at least three independent experiments, unless stated otherwise. Concentration-response curves were fitted applying non-linear regression using the log (agonist) versus response model with variable slope. ANOVA was applied for comparing results and determining statistical significance. Comparison of responses to the reference was performed using one-way ANOVA with Dunnett’s multiple comparisons test at significance threshold of p < 0.05. Comparison of responses across assays and ligands was performed using two-way ANOVA with Tukey’s multiple comparisons test at a significance threshold of p < 0.05."}},
  "note": "Values joined by “and” are separate entries in the source; they are usually repeats but may differ in a detail not shown here. Equal entries are not always repeated.",
  "data": [
    {"smiles": "C[C@H](NC(=O)Cn1nnc2ccccc2c1=O)c1ccc(OC(F)(F)F)cc1", "note": "[TAK-041, reference compound]", "values": [
      {"measurement": "outcome of phase II trials", "setting": "[1]; anhedonia in schizophrenia and major depressive disorder", "value": "did not meet the primary endpoints"},
      {"measurement": "safety and tolerability", "setting": "[1]", "value": "good safety profile and was well tolerated"},
      {"measurement": "Ca2+ signal (% of Cmp 1a)", "setting": "GPR139 [2]; log [Compound] M -5.5, replicate experiments", "value": "99 % of Cmp 1a and 95 % of Cmp 1a and 92 % of Cmp 1a"},
      {"measurement": "Ca2+ signal (% of Cmp 1a)", "setting": "GPR139 [2]; log [Compound] M -6.0, replicate experiments", "value": "80 % of Cmp 1a and 94 % of Cmp 1a and 83 % of Cmp 1a"},
      {"measurement": "Ca2+ signal (% of Cmp 1a)", "setting": "GPR139 [2]; log [Compound] M -6.5, replicate experiments", "value": "83 % of Cmp 1a and 80 % of Cmp 1a (2×)"},
      {"measurement": "Ca2+ signal (% of Cmp 1a)", "setting": "GPR139 [2]; log [Compound] M -7.0, replicate experiments", "value": "63 % of Cmp 1a and 62 % of Cmp 1a (2×)"},
      {"measurement": "Ca2+ signal (% of Cmp 1a)", "setting": "GPR139 [2]; log [Compound] M -7.5, replicate experiments", "value": "35 % of Cmp 1a and 36 % of Cmp 1a and 41 % of Cmp 1a"},
      {"measurement": "Ca2+ signal (% of Cmp 1a)", "setting": "GPR139 [2]; log [Compound] M -8.0, replicate experiments", "value": "16 % of Cmp 1a and 11 % of Cmp 1a and 17 % of Cmp 1a"},
      {"measurement": "Ca2+ signal (% of Cmp 1a)", "setting": "GPR139 [2]; log [Compound] M -8.5, replicate experiments", "value": "0 % of Cmp 1a"},
      {"measurement": "Ca2+ signal (% of Cmp 1a)", "setting": "GPR139 [2]; log [Compound] M -9.0, replicate experiments", "value": "0 % of Cmp 1a"},
      {"measurement": "Ca2+ signal (% of Cmp 1a)", "setting": "GPR139 [2]; log [Compound] M = -5.5, individual replicate columns", "value": "99 % of Cmp 1a and 95 % of Cmp 1a and 92 % of Cmp 1a"},
      {"measurement": "Ca2+ signal (% of Cmp 1a)", "setting": "GPR139 [2]; log [Compound] M = -6.0, individual replicate columns", "value": "80 % of Cmp 1a and 94 % of Cmp 1a and 83 % of Cmp 1a"},
      {"measurement": "Ca2+ signal (% of Cmp 1a)", "setting": "GPR139 [2]; log [Compound] M = -6.5, individual replicate columns", "value": "83 % of Cmp 1a and 80 % of Cmp 1a (2×)"},
      {"measurement": "Ca2+ signal (% of Cmp 1a)", "setting": "GPR139 [2]; log [Compound] M = -7.0, individual replicate columns", "value": "63 % of Cmp 1a and 62 % of Cmp 1a (2×)"},
      {"measurement": "Ca2+ signal (% of Cmp 1a)", "setting": "GPR139 [2]; log [Compound] M = -7.5, individual replicate columns", "value": "35 % of Cmp 1a and 36 % of Cmp 1a and 41 % of Cmp 1a"},
      {"measurement": "Ca2+ signal (% of Cmp 1a)", "setting": "GPR139 [2]; log [Compound] M = -8.0, individual replicate columns", "value": "16 % of Cmp 1a and 11 % of Cmp 1a and 17 % of Cmp 1a"},
      {"measurement": "Ca2+ signal (% of Cmp 1a)", "setting": "GPR139 [2]; log [Compound] M = -8.5, individual replicate columns", "value": "0 % of Cmp 1a"},
      {"measurement": "Ca2+ signal (% of Cmp 1a)", "setting": "GPR139 [2]; log [Compound] M = -9.0, individual replicate columns", "value": "0 % of Cmp 1a"},
      {"measurement": "Emax", "setting": "GPR139 [2]; read-out: Emax (%), Ca2+ mobilization", "value": "100 ± 3", "unit": "%"},
      {"measurement": "Emax", "setting": "GPR139 [3]; Supplementary Table 4, normalized to Lundbeck Cmp 1a, read-out: Emax (%), IP1 accumulation", "value": "101 ± 9", "unit": "%"},
      {"measurement": "IP1 response (% of Cmp 1a)", "setting": "GPR139 [3]; log [Compound] M -4.5", "value": "112 % of Cmp 1a and 93 % of Cmp 1a and 83 % of Cmp 1a and 114 % of Cmp 1a"},
      {"measurement": "IP1 response (% of Cmp 1a)", "setting": "GPR139 [3]; log [Compound] M -5.0", "value": "115 % of Cmp 1a and 78 % of Cmp 1a and 92 % of Cmp 1a and 118 % of Cmp 1a"},
      {"measurement": "IP1 response (% of Cmp 1a)", "setting": "GPR139 [3]; log [Compound] M -5.5", "value": "87 % of Cmp 1a and 81 % of Cmp 1a and 75 % of Cmp 1a and 93 % of Cmp 1a"},
      {"measurement": "IP1 response (% of Cmp 1a)", "setting": "GPR139 [3]; log [Compound] M -6.0", "value": "84 % of Cmp 1a and 66 % of Cmp 1a and 75 % of Cmp 1a and 94 % of Cmp 1a"},
      {"measurement": "IP1 response (% of Cmp 1a)", "setting": "GPR139 [3]; log [Compound] M -6.5", "value": "86 % of Cmp 1a and 56 % of Cmp 1a and 45 % of Cmp 1a and 98 % of Cmp 1a"},
      {"measurement": "IP1 response (% of Cmp 1a)", "setting": "GPR139 [3]; log [Compound] M -7.0", "value": "63 % of Cmp 1a (2×) and 41 % of Cmp 1a and 62 % of Cmp 1a"},
      {"measurement": "IP1 response (% of Cmp 1a)", "setting": "GPR139 [3]; log [Compound] M -7.5", "value": "51 % of Cmp 1a and 26 % of Cmp 1a and 33 % of Cmp 1a and 49 % of Cmp 1a"},
      {"measurement": "IP1 response (% of Cmp 1a)", "setting": "GPR139 [3]; log [Compound] M -8.0", "value": "28 % of Cmp 1a and -3.49 % of Cmp 1a and 8 % of Cmp 1a and 21 % of Cmp 1a"}
    ]}
  ]
}
